{
  "source": "patent US20260137754A1",
  "about": "“APPLICATION OF A COMBINATION DRUG IN THE TREATMENT OF PATHOGENIC BACTERIAL PERSISTENT INFECTIONS” (priority 2023, published 2026)",
  "key": {"E. coli hipA7 strain": {"tested_on": "E. coli hipA7 strain", "conditions": "for survival rate / viability: monotherapy 10 hours, kanamycin 3 MIC, ciprofloxacin 20 MIC, ampicillin 20 MIC, polymyxin B 3 MIC, mitomycin C 3 MIC", "description": "(§1) The proportion of persisting cells in bacterial cultures typically reaches higher levels during the nutrient-depleted stationary phase. To investigate the persistence capacity of the model bacterium Escherichia coli(E. coli) against most bactericidal antibiotics, the standard BW25113 strain with E. coli K12 background was cultured at 37° C. in commercially available LB liquid medium until reaching the stationary phase. The culture was then inoculated at a 1:20 dilution into fresh LB liquid medium containing antibiotics at multiple dilutions of the minimum inhibitory concentration (MIC). Samples were collected after different treatment durations, and residual antibiotics were removed through two centrifugations. After tenfold serial dilution in physiological saline, the cultures were plated on LB agar plates without antibiotics. Survival colony-forming units (CFUs) were counted after two days of incubation, with initial CFU values before antibiotic addition serving as controls to calculate bacterial survival rates and persistence levels using conventional experimental methods. Testing for other bacteria followed the same protocol.\n(§2) Each measurement was obtained from at least three independent experiments, with error bars representing the mean±standard deviation.\nas §2, §2"}, "[1]": {"tested_on": "wild-type E. coli BW25113", "test": "Survival / persistence level (CFU) of stationary-phase culture diluted 1:20 into fresh LB with antibiotic", "assay_type": "cell-based, Escherichia coli", "conditions": "for persistence survival level / persistence rate: monotherapy 10 hours, kanamycin 3 MIC, ciprofloxacin 20 MIC, ampicillin 20 MIC, polymyxin B 3 MIC", "description": "as §1\nThe culture was then incubated at 37° C. with shaking at 160 rpm for 10 hours. […] Each measurement was obtained from at least three independent experiments, with error bars representing the mean±standard deviation."}, "[2]": {"tested_on": "wild-type E. coli BW25113", "test": "Minimum inhibitory concentration (MIC)", "assay_type": "cell-based, Escherichia coli"}, "[3]": {"conditions": "cited from earlier work"}, "E. coli hipA7 cells [4]": {"tested_on": "E. coli hipA7 cells", "test": "Cell membrane damage, propidium iodide (PI) staining", "assay_type": "cell-based, Escherichia coli", "conditions": "single drug", "experimental": "Samples were incubated at 37° C. with 160 rpm shaking for 8 hours.\nParallel samples were treated with corresponding concentrations of individual drugs. Samples were collected at 0, 2, and 4 hours, with the addition of 5 μM PI dye 10 minutes prior to each collection time point. After washing with saline to remove antibiotics and extracellular dyes, cellular fluorescence intensity was analyzed by flow cytometry, with 100,000 cells analyzed per sample. The results from three independent experiments were basically the same. Representative data from one of the experiments were selected for plotting."}, "E. coli hipA7 cells [5]": {"tested_on": "E. coli hipA7 cells", "test": "Membrane potential, DiSC3(5) dye, flow cytometry", "assay_type": "cell-based, Escherichia coli", "conditions": "0.9 μg/mL polymyxin B, 20 μg/mL kanamycin, combined or alone; up to 8 hours", "experimental": "As represented by the combination antibiotic containing 0.9 μg/mL polymyxin B and 20 μg/mL kanamycin, the cell membrane damage in hipA7 cultures during stress-induced antibiotic killing was assessed. […] Samples were incubated at 37° C. with 160 rpm shaking for 8 hours. During sampling, 2.5 μM DiSC3 (5) was added in the first 10 minutes of each time point, followed by washing to remove the drugs and unbound dye. Flow cytometry was used to measure fluorescence intensity, with 100,000 cells analyzed per sample. […] Representative data from one of the experiments were selected for plotting."}, "[6]": {"conditions": "Escherichia coli, BW25113, read-out: MIC"}, "[7]": {"conditions": "clinical dosage guideline 2 mg/kg"}},
  "note": "Values joined by “and” are separate entries in the source; they are usually repeats but may differ in a detail not shown here. Equal entries are not always repeated. Where two headings read alike, the source gives them in different places.",
  "data": [
    {"compound": "CC1(C)S[C@@H]2[C@H](NC(=O)[C@H](N)c3ccccc3)C(=O)N2[C@H]1C(=O)O", "note": "[ampicillin]", "values": [
      {"measurement": "survival rate / viability", "setting": "E. coli hipA7 strain", "value": "Approximately 10%"},
      {"measurement": "persistence survival level / persistence rate", "setting": "[1]", "value": 0.001, "unit": "%"},
      {"measurement": "MIC", "setting": "[2]; [6]", "value": 6, "unit": "µg/mL"}
    ]},
    {"compound": "O=C(O)c1cn(C2CC2)c2cc(N3CCNCC3)c(F)cc2c1=O", "note": "[ciprofloxacin]", "values": [
      {"measurement": "survival rate / viability", "setting": "E. coli hipA7 strain", "value": "Approximately 10%"},
      {"measurement": "persistence survival level / persistence rate", "setting": "[1]", "value": 0.001, "unit": "%"},
      {"measurement": "MIC", "setting": "[2]; [6]", "value": 0.03, "unit": "µg/mL"}
    ]},
    {"compound": "NC[C@H]1O[C@H](O[C@H]2[C@H](O)[C@@H](O[C@H]3O[C@H](CO)[C@@H](O)[C@H](N)[C@H]3O)[C@H](N)C[C@@H]2N)[C@H](O)[C@@H](O)[C@@H]1O", "note": "[kanamycin]", "values": [
      {"measurement": "peak serum concentration", "setting": "[3]; clinical", "value": "20 µg/mL and 18 to 20 µg/mL"},
      {"measurement": "survival rate, times higher than that of wild-type E. coli", "setting": "E. coli hipA7 strain; 3 MIC kanamycin, 10 hours", "value": "10,000 times"},
      {"measurement": "survival rate / viability", "setting": "E. coli hipA7 strain", "value": 10, "unit": "%"},
      {"measurement": "viability decreased", "setting": "[1]; kanamycin 24 μg/mL (3 MIC), 10 hours", "value": "100,000 fold"},
      {"measurement": "persistence survival level / persistence rate", "setting": "[1]", "value": 0.001, "unit": "%"},
      {"measurement": "MIC", "setting": "[2]; [6]", "value": 8, "unit": "µg/mL"}
    ]},
    {"compound": "CO[C@@]12[C@H](COC(N)=O)C3=C(C(=O)C(C)=C(N)C3=O)N1C[C@@H]1N[C@@H]12", "note": "[mitomycin C]", "values": [
      {"measurement": "MIC", "setting": "[2]", "value": 0.8, "unit": "µg/mL"}
    ]},
    {"compound": "polymyxin", "values": [
      {"measurement": "average serum concentration", "setting": "[3]; [7]", "value": "approximately 2.8 μg/mL"},
      {"measurement": "serum concentration range", "setting": "[3]; [7]", "value": "680 to 4880", "unit": "ng/mL"}
    ]},
    {"compound": "polymyxin B", "values": [
      {"measurement": "PI fluorescence (membrane disruption)", "setting": "E. coli hipA7 cells [4]; after 2 hours", "value": "majority of cells showed no increase in PI fluorescence"},
      {"measurement": "PI fluorescence (membrane disruption)", "setting": "E. coli hipA7 cells [4]; after 4 hours", "value": "only a minimal number of cells exhibiting detectable signals"},
      {"measurement": "survival rate / viability", "setting": "E. coli hipA7 strain", "value": "Approximately 10%"},
      {"measurement": "persistence survival level / persistence rate", "setting": "[1]", "value": 0.001, "unit": "%"},
      {"measurement": "MIC", "setting": "[2]", "value": 0.3, "unit": "µg/mL"},
      {"measurement": "DiSC3(5) fluorescence signal (membrane potential)", "setting": "E. coli hipA7 cells [5]", "value": "no significant enhancement of DiSC3(5) fluorescence signal"}
    ]}
  ]
}
